Consider twelve molecules from article PMC9228733, “Novel Radioiodinated and Radiofluorinated Analogues of FT-2102 for SPECT or PET Imaging of mIDH1 Mutant Tumours” (Molecules, 2022).

Each structure is given as a SMILES string. Read-outs that look alike come from different tables or passages of the source.

One series deals with mIDH1. The settings on record: cited from earlier work.
The target of a further series is T1, IDH1 R132H (Homo sapiens, UniProt O75874, R132H).
T1 construct: purchased BPS Bioscience BPS-79376
Description: Mutant IDH1 enzyme assay (diaphorase/resazurin), IDH1 R132H. It is filed as biochemical. To be noted: for IC50: mean ± SD of at least three determinations. As for the experimental part: (§1) The amount of NADPH remaining at the end of the reaction time is measured in a secondary diaphorase/resazurin reaction in which the NADPH is consumed in a 1:1 molar ratio with the conversion of resazurin to the highly fluorescent resorufin. […] For inhibition assays, triplicate samples of the compounds in the concentration range from 10^−5 to 10^−10 M were incubated with the enzyme for 30 min prior to addition of α-KG and NADPH to initiate the reaction. The reaction ran for 60 min at room temperature and was terminated with the addition of 25 μL of Detection Buffer (36 μg/mL diaphorase, […]) to 50 µL of the reaction solution. […] The data were imported into GraphPad Prism 4.1 (GraphPad Inc.; La Jolla; CA, USA), and the IC50 values were calculated with a standard dose–response curve fitting (Figure S3).
In general terms: Resazurin is reduced to fluorescent resorufin, in cell work by metabolically active cells.

A further series has as its target T2, IDH1 R132C (Homo sapiens, UniProt O75874, R132C).
T2 construct: purchased ActiveMotif ACM-31713
The series is described as follows: Mutant IDH1 enzyme assay (diaphorase/resazurin), IDH1 R132C. It counts as biochemical. To be noted: mean ± SD of at least three determinations. Here is the method:
as §1

The target in a further series is T3, wt IDH1 (Homo sapiens, UniProt O75874).
T3 construct: purchased abcam ab113858
The series is described as follows: wt IDH enzyme assay, wt IDH1. It is filed as biochemical. To be noted: mean of at least three determinations. Here is the method: (§2) wt IDH enzyme assay is a modified version of the assay used for mIDH1. With the conversion of isocitrate to α-KG, this enzyme stoichiometrically converts NADP to NADPH. The produced NADPH, which directly couples to the diaphorase/resazurin system and the resorufin production, can be measured. The protocols for the determination of inhibition of both wt IDH1 and wt IDH2 were conducted as described by Wang et al.. The wt IDH1 (ab113858) was purchased from abcam (Cambridge, UK), and the wt IDH2, from BPS Bioscience (San Diego, CA, USA).
Briefly, wt IDH1 assays were conducted in 50 µL buffer (20 mM TRIS buffer (pH = 7.5), 150 mM NaCl, 10 mM MgCl2, 0.05% BSA, and 4 mM β-mercaptoethanol) containing 50 µM NADP, 70 µM D/L-isocitrate, and 0.04 µg/mL wt IDH1 enzyme (reaction time 1 h at RT). For inhibition assays, triplicate samples of the compounds in the concentration range from 10^−5 to 10^−10 M were incubated with the wt IDH1 for 1 h before addition of D/L-isocitrate and NADP to initiate the reaction together with the direct detection system comprising 20 µg/mL diaphorase and 4 µM resazurin.

The target in the next series is T4, wt IDH2 (Homo sapiens, UniProt P48735).
T4 construct: purchased BPS Bioscience
T4 sequence (P48735 40-452): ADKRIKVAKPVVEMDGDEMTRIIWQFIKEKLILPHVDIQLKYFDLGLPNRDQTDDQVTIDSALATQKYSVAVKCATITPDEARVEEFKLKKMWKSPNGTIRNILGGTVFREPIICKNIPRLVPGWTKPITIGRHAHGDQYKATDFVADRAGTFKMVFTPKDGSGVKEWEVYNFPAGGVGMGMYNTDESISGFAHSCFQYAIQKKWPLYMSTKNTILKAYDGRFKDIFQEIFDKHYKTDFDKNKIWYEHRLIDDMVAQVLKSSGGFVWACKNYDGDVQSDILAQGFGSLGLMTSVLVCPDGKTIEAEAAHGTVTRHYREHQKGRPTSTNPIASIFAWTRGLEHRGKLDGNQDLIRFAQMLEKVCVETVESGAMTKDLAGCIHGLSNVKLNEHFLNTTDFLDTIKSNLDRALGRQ
Description: wt IDH enzyme assay, wt IDH2. It counts as biochemical. To be noted: mean of at least three determinations. Here is the method: as §2
Assays for wt IDH2 were conducted in 50 µL buffer (20 mM TRIS buffer (pH = 7.5), 150 mM NaCl, 10 mM MgCl2, 0.05% BSA, and 4 mM β-mercaptoethanol) containing 50 µM NADP, 70 µM D/L-isocitrate, and 0.05 µg/mL wt IDH2 enzyme (reaction time 1 h at RT). For inhibition assays, triplicate samples of the compounds in the concentration range from 10^−5 to 10^−10 M were incubated with the wt IDH2 and NADP for 1 h before addition of D/L-isocitrate to initiate the reaction together with the direct detection system comprising 20 µg/mL diaphorase and 4 µM resazurin. The reaction was stopped by addition of 5 μL 10% SDS and read as described above. The data were imported into GraphPad Prism, and the IC50 values were calculated with a standard dose−response curve fitting.

Series [1] in a line: Stability of radiotracer at room temperature in ethanol, saline or DPBS (radio-HPLC). It counts as physicochemical. As for the experimental part: To a solution of organotin precursor (S)-15 in methanol (50 µL, 1 mg/mL) were successively added [^125I]NaI (10-50 µL, 2.1–15.3 MBq), glacial acetic acid (2.5 µL), and a solution of CAT trihydrate (5 µL, 1 mg/mL). The reaction vial was sealed and stirred at room temperature for 5 min before addition of a solution of Na2S2O5 in deionised water (5 µL, 1 mg/mL). The reaction mixture was purified by semipreparative RP-HPLC. The collected fraction was further diluted with deionised water (10 mL) and passed through a Sep-Pak® Plus Light cartridge (beforehand conditioned successively with 10 mL of deionised water, 10 mL of methanol, and 10 mL of deionised water). The cartridge was washed with deionised water (2 mL) and dried with air before elution of the radioiodinated tracer (S)-[^125I]2 with ethanol (500 µL). The radiotracer was finally formulated in saline or DPBS (pH 7.4) to reach an ethanol content of ca. 5% for stability studies.
The aqueous solution of [^18F]F^− in [^18O]H2O was passed through an anion exchange resin (Sep-Pak® Light Accell Plus QMA carbonate cartridge) preconditioned with 10 mL of ethanol, 10 mL of an aqueous solution of lithium trifluoromethanesulfonate (90 mg/mL), and 10 mL of deionised water. Then, a solution of potassium carbonate (50 µg) and lithium trifluoromethanesulfonate (10 mg) in water (550 µL) was passed through the cartridge to elute the radioactivity to the reactor before addition of anhydrous ACN (1 mL). In such conditions, more than 97% of the radioactivity was usually recovered from the cartridge. The solution was dried by azeotropic distillation under reduced pressure and He flow at 100 °C for 12 min. After cooling to 25 °C, anhydrous DMA (2 mL) was added to the reactor. Then, 200 µL of the resulting solution (40–245 MBq, n = 10) was transferred in a glass vial equipped with a magnetic stirrer before addition of a solution of tetrakis(pyridine)copper(II) triflate (Cu(OTf)2(py)4, 14 mg, 20.6 µmol) in anhydrous DMA (250 µL) and a solution of the tin precursor (S)-15 (6.1 mg, 10.0 µmol) in anhydrous DMA (100 µL). The reaction mixture was stirred at 110 °C for 10 min. After cooling to 25 °C, deionised water (25 mL) was added, and the reaction mixture was passed through a Sep-Pak® C18 Plus Light cartridge preconditioned with 10 mL of deionised water, 10 mL of methanol, and 10 mL of deionised water. The cartridge was washed with deionised water (2 mL) and flushed with air before elution of the desired ^18F-labelled radiotracer with ACN (500 µL). For isolation of the radiotracer, the eluate was subjected to semipreparative RP-HPLC. The collected fraction was diluted with deionised water (25 mL) and passed through a Sep-Pak® C18 Plus Light cartridge preconditioned with 10 mL of deionised water, 10 mL of methanol, and 10 mL of deionised water. The cartridge was washed with deionised water (2 mL) and flushed with air before elution of the final (S)-[^18F]3 radiotracer with ethanol (500–600 µL). The radiotracer was finally formulated in saline or DPBS (pH 7.4) to reach an ethanol content of ca. 5% for stability studies.
(§3) Figure 7 Radioactivity-HPLC chromatograms of the radiotracer (S)-[^125I]2 incubated, for 1, 2, and 3 h post formulation, at room temperature in ethanol, NaCl 0.9% containing 5% ethanol, and DPBS (pH 7.4) containing 5% ethanol, as well as in a mixture of DPBS and mouse serum at 37 °C.
(§4) Figure 8 Radioactivity-HPLC chromatograms of the radiotracer (S)-[^18F]3 incubated, for 0, 1, and 2 h post formulation, at room temperature in ethanol, NaCl 0.9% containing 5% ethanol, and DPBS (pH 7.4) containing 5% ethanol, as well as in a mixture of DPBS and mouse serum at 37 °C.

Series [2] is described as follows: Stability of radiotracer in mouse serum at 37 °C (radio-HPLC). It is filed as in vitro ADME. As for the experimental part: as §3, §4
The mark [3] stands for this setting: phenyl-glycine scaffold, mixtures of stereoisomers, read-out: IC50 for mIDH1.
The mark [4] stands for this setting: butyl-phenyl sulfonamides, read-out: IC50.

For orientation: IC50 means the concentration needed to halve the response being measured.

T3 sequence (O75874 whole entry): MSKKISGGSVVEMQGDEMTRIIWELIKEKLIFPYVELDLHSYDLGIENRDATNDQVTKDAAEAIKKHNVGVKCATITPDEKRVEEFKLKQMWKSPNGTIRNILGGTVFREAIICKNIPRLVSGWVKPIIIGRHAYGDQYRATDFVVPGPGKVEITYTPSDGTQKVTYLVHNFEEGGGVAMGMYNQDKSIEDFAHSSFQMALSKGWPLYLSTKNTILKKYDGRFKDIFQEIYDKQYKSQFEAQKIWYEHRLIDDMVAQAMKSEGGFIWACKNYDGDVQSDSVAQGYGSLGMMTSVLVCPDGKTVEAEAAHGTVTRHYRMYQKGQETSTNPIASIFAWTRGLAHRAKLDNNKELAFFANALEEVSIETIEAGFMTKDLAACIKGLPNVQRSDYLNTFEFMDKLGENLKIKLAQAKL
T2 sequence (O75874 whole entry R132C): as the sequence (O75874 whole entry) above, with R132C counted along it
T1 sequence (O75874 whole entry R132H): as the sequence (O75874 whole entry) above, with R132H counted along it

On to `Cc1ccccc1C(C(=O)NC1CCCCC1)N(C(=O)Cn1ccnc1C)c1cccc([18F])c1` (stereo not shown) [III], for which, in the series with mIDH1 (setting [3]), the IC50 is < 50 nM.
`C[C@H](Nc1ccc(C#N)n(C)c1=O)c1cc2cc(I)ccc2[nH]c1=O` [(S)-2, (S)-5-{[1-(6-iodo-2-oxo-1,2-dihydroquinolin-3-yl)ethyl]-amino}-1-methyl-6-oxo-1,6-dihydropyridine-2-carbonitrile]: the concentration for half-maximal inhibition (IC50) at IDH1 R132H is 5.23 ± 0.75 nM; on IDH1 R132C, 160 ± 24 nM; against wt IDH1, > 10000 nM; against wt IDH2, > 10000 nM.
On to `C[C@H](Nc1ccc(C#N)n(C)c1=O)c1cc2cc([18F])ccc2[nH]c1=O` [(S)-[^18F]3], for which the “RCP (stability)” value in series [1] (DPBS (pH 7.4) containing 5% ethanol, over 2 h) is recorded as > 99%; in series [1] (NaCl 0.9% containing 5% ethanol, over 2 h), > 99%; in series [1] (ethanolic solution from final C18 SPE cartridge, over 2 h) it was > 99%; in series [2] (37 °C, over 2 h), > 99%.
As to `Cc1ccccc1C(C(=O)NC1CCCCC1)N(C(=O)Cn1ccnc1C)c1cccc([125I])c1` (stereo not shown) [IV], the IC50 with mIDH1 (setting [3]) was < 50 nM.
For the molecule `CCCCc1ccc(NS(=O)(=O)c2ccc(C)c(C(=O)N3CCN(c4ccccc4[125I])CC3)c2)cc1` [VI], the half-inhibitory concentration (IC50) with mIDH1 (setting [4]) was 1700 nM.
In the case of `C[C@@H](Nc1ccc(C#N)n(C)c1=O)c1cc2cc(I)ccc2[nH]c1=O` [(R)-2, (R)-5-{[1-(6-iodo-2-oxo-1,2-dihydroquinolin-3-yl)ethyl]-amino}-1-methyl-6-oxo-1,6-dihydropyridine-2-carbonitrile], the IC50 against IDH1 R132H was 323 ± 83 nM; against IDH1 R132C, > 10000 nM; at wt IDH1, > 10000 nM; at wt IDH2, > 10000 nM.
With `C[C@H](Nc1ccc(C#N)n(C)c1=O)c1cc2cc(F)ccc2[nH]c1=O` [(S)-3, (S)-5-{[1-(6-fluoro-2-oxo-1,2-dihydroquinolin-3-yl)ethyl]-amino}-1-methyl-6-oxo-1,6-dihydropyridine-2-carbonitrile], the “decrease of inhibitory potency compared with iodinated compound (S)-2” value at IDH1 R132H (IDH1 R132H) was “fourfold”. In addition, the half-maximal inhibitory concentration (IC50) at IDH1 R132H is 22.7 ± 5.2 nM; on IDH1 R132C it was 579 ± 110 nM; against wt IDH1 it was > 10000 nM; at wt IDH2 it was > 10000 nM.
Consider `Cc1ccccc1C(C(=O)NC1CCCCC1)N(C(=O)n1cnc2ccccc21)c1cccc([18F])c1` (stereo not shown) [II], for which the IC50 in the series on mIDH1 (setting [3]) was < 50 nM.
On to `N#Cc1ccnc(N2C(=O)CCC2C(=O)N(c2cncc([18F])c2)C(C(=O)NC2CC(F)(F)C2)c2ccccc2Cl)c1` (stereo not shown) [I], for which, in the series on mIDH1 (setting [3]), the half-inhibitory concentration (IC50) was < 50 nM.
Take `C[C@H](Nc1ccc(C#N)n(C)c1=O)c1cc2cc([125I])ccc2[nH]c1=O` [(S)-[^125I]2]: the “RCP (stability)” value worked out at 97.4% in series [1] (DPBS pH 7.4, room temperature, 3 h post formulation); 98.0% in series [1] (ethanolic solution eluted after C18 SPE cartridge, room temperature, 3 h post formulation); 97.2% in series [1] (formulation medium (saline, ca. 5% ethanol), room temperature, 3 h post formulation); 94.3% in series [2] (3 h at 37 °C).
As for `C[C@@H](Nc1ccc(C#N)n(C)c1=O)c1cc2cc(F)ccc2[nH]c1=O` [(R)-3, (R)-5-{[1-(6-fluoro-2-oxo-1,2-dihydroquinolin-3-yl)ethyl]-amino}-1-methyl-6-oxo-1,6-dihydropyridine-2-carbonitrile], the 50% inhibitory concentration (IC50) was 698 ± 145 nM against IDH1 R132H, > 10000 nM on IDH1 R132C, > 10000 nM at wt IDH1 and > 10000 nM against wt IDH2.
For the molecule `CCCCc1ccc(NS(=O)(=O)c2ccc(C)c(C(=O)N3CCN(c4ccccc4OCC[18F])CC3)c2)cc1` [VII], the IC50 in the series on mIDH1 (setting [4]) is 2300 nM.
